# How the values were obtained:
# [1] = tested on: PC-3 cells; experiment: PC-3 cell viability analysis (MTT); assay type: cell-based, human; conditions: inducing apoptotic death in PC-3 cells / PC-3 cell viability; read-out: IC50 PC-3
# Experimental: Cell Culture PC-3 (p53−/−) human androgen-nonresponsive prostate cancer cells were purchased from the American […] (Manassas, Va.). Cells were cultured in RPMI 1640 medium (Gibco, Grand Island, N.Y.) supplemented with 10% fetal bovine serum (FBS; Gibco) at 37° C. in a humidified incubator containing 5% CO2.
# Cell viability analysis The effect of 4-[5-(4-methylphenyl)-3-(trifluoromethyl)-1H-pyrazol-1-yl]benzenesulfonamide and its derivatives on PC-3 cell viability was assessed by using the MTT {[3-(4,5-dimethylthiazol-2-yl)-2,5-diphenyl-2H-tetrazolium bromide]} assay in six replicates. Cells were grown in 10% FBS-supplemented RPMI 1640 medium in 96-well, flat bottomed plates for 24 h, and were exposed to various concentrations of compounds 1-36 dissolved in DMSO (final concentration≦0.1%) in 1% serum-containing RPMI 1640 medium for different time intervals. Controls received DMSO vehicle at a concentration equal to that in drug-treated cells. The medium was removed, replaced by 200 μl of 0.5 mg/ml of MTT in 10% FBS-containing RPMI-1640 medium, and cells were incubated in the CO2 incubator at 37° C. for 2 h. Supernatants were removed from the wells, and the reduced MTT dye was solubilized in 200 μL/well DMSO. Absorbance at 570 nm was determined on a plate reader.
# [2] = tested on: SF-295; experiment: NCI DTP cell line screen (SRB), CNS Cancer; assay type: cell-based
# Experimental: (§1) Screening of compounds 70 and 71 against several cancer cell lines The human tumor cell lines of the cancer screening panel are grown in RPMI 1640 medium containing 5% fetal bovine serum and 2 mM L-glutamine. For a typical screening experiment, cells are inoculated into 96 well microtiter plates in 100 μL at plating densities ranging from 5,000 to 40,000 cells/well depending on the doubling time of individual cell lines. After cell inoculation, the microtiter plates are incubated at 37° C., 5% CO2, 95% air and 100% relative humidity for 24 h prior to addition of experimental drugs.
# (§2) After 24 h, two plates of each cell line are fixed in situ with TCA, to represent a measurement of the cell population for each cell line at the time of drug addition (Tz). Experimental drugs are solubilized in dimethyl sulfoxide at 400-fold the desired final maximum test concentration and stored frozen prior to use. At the time of drug addition, an aliquot of frozen concentrate is thawed and diluted to twice the desired final maximum test concentration with complete medium containing 50 μg/ml gentamicin. Additional four, 10-fold or ½ log serial dilutions are made to provide a total of five drug concentrations plus control. Aliquots of 100 μl of these different drug dilutions are added to the appropriate microtiter wells already containing 100 μl of medium, resulting in the required final drug concentrations.
# (§3) Following drug addition, the plates are incubated for an additional 48 h at 37° C., 5% CO2, 95% air, and 100% relative humidity. For adherent cells, the assay is terminated by the addition of cold TCA. Cells are fixed in situ by the gentle addition of 50 μl of cold 50% (w/v) TCA (final concentration, 10% TCA) and incubated for 60 minutes at 4° C. The supernatant is discarded, and the plates are washed five times with tap water and air dried. Sulforhodamine B (SRB) solution (100 μl) at 0.4% (w/v) in 1% acetic acid is added to each well, and plates are incubated for 10 minutes at room temperature. After staining, unbound dye is removed by washing five times with 1% acetic acid and the plates are air dried. Bound stain is subsequently solubilized with 10 mM trizma base, and the absorbance is read on an automated plate reader at a wavelength of 515 nm. For suspension cells, the methodology is the same except that the assay is terminated by fixing settled cells at the bottom of the wells by gently adding 50 μl of 80% TCA (final concentration, 16% TCA). Using the seven absorbance measurements [time zero, (Tz), control growth, (C), and test growth in the presence of drug at the five concentration levels (Ti)], the percentage growth is calculated at each of the drug concentrations levels. Percentage growth inhibition is calculated as: [(Ti−Tz)/(C−Tz)]×100 for concentrations for which Ti>/=Tz [(Ti−Tz)/Tz]×100 for concentrations for which Ti<Tz
# (§4) Three dose response parameters are calculated for each experimental agent. […] The drug concentration resulting in total growth inhibition (TGI) is calculated from Ti=Tz. […] Values are calculated for each of these three parameters if the level of activity is reached; however, if the effect is not reached or is exceeded, the value for that parameter is expressed as greater or less than the maximum or minimum concentration tested.
# (§5) The methods described were used to test compounds 70 and 71 on a panel of sixty cell lines under a screening service provided by the Developmental Therapeutics Program at the National Institutes of Health. Shown in FIG. 1C are 1, RPMI-8226 leukemia cells; 2; NCI-H322M non-small cell lung cancer cells; 3, HT29 colon cancer cells; 4, U251 CNS cancer cells; 5, SK-MEL-28 melanoma cancer cells; 6, SK-OV-3 ovarian cancer cells; 7, RXF 393 renal cancer cells; 8, PC-3 prostate cancer cells; 9, MDA-MB-231 breast cancer cells.
# [3] = tested on: SF-268; experiment: NCI DTP cell line screen (SRB), CNS Cancer; assay type: cell-based
# Experimental: as §1, §2, §3, §4, §5
# [4] = biological target: T1, recombinant PDK-1 (Homo sapiens, UniProt O15530); experiment: PDK-1 kinase activity (Upstate kit, cell-free); assay type: biochemical
# T1 construct: purchased Upstate (Lake Placid, N.Y.)
# T1 sequence (O15530 1-556): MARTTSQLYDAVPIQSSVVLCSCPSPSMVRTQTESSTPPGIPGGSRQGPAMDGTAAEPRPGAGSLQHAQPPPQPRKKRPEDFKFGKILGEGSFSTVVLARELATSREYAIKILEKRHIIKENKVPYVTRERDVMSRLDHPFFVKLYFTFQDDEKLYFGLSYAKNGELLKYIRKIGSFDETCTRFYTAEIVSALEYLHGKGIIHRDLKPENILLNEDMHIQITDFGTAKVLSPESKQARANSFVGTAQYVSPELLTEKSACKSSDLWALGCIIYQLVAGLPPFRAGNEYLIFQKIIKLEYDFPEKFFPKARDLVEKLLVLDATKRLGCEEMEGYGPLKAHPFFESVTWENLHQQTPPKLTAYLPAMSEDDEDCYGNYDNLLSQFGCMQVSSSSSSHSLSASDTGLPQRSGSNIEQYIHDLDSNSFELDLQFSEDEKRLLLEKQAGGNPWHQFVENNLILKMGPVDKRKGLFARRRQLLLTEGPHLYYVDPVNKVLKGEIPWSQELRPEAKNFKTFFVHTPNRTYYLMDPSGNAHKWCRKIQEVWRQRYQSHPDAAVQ
# Experimental: PDK-1 kinase activity This in vitro assay was performed using a PDK-1 kinase assay kit (Upstate, Lake Placid, N.Y.) according to the vendor's instructions. This cell-free assay is based on the ability of recombinant PDK-1, in the presence of DMSO vehicle or the test agent, to activate its downstream kinase serum- and glucocorticoid-regulated kinase (SGK.) which, in turn, phosphorylates the Akt/SGK-specific peptide substrate RPRAATF with [γ-^32]-ATP. […] The reported values represent the means of two independent determinations.
Structure (SMILES),IC50 [1] [nM],TGI [2],Percent Growth ([2]; Log10 Concentration −4.0) [%],Percent Growth ([2]; Log10 Concentration −5.0) [%],Percent Growth ([2]; Log10 Concentration −6.0) [%],Percent Growth ([2]; Log10 Concentration −7.0) [%],Percent Growth ([2]; Log10 Concentration −8.0) [%],TGI [3],Percent Growth ([3]; Log10 Concentration −4.0) [%],Percent Growth ([3]; Log10 Concentration −5.0) [%],Percent Growth ([3]; Log10 Concentration −6.0) [%],Percent Growth ([3]; Log10 Concentration −7.0) [%],Percent Growth ([3]; Log10 Concentration −8.0) [%],increase in potency over compound 59 (PDK-1 inhibition) [4]
"N=C(N)Nc1ccc(-n2nc(C(F)(F)F)cc2-c2ccc3c(ccc4ccccc43)c2)cc1 [Compound 71, 4-[5-(2-Phenanthrenyl)-3-(trifluoromethyl)-1H-pyrazol-1-yl]-phenyl-guanidine]",3000,–,–,–,–,–,–,–,–,–,–,–,–,–
"NCC(=O)Nc1ccc(-n2nc(C(F)(F)F)cc2-c2ccc3c(ccc4ccccc43)c2)cc1 [Compound 70, 2-Amino-N-{4-[5-(2-phenanthrenyl)-3-(trifluoromethyl)-1H-pyrazol-1-yl]-phenyl}-acetamide]",–,3.71E−06,−32,−47,62,96,94,4.16E−06,26,−33,54,72,84,two

# Source: US8541460B2, “PDK-1/Akt signaling inhibitors” (The Ohio State University, priority 2003, dated 2013)
